Values after ≈ are worked out from the molar mass of the structure shown.

For data set [1], the system named is T. b. gambiense ITMAP 141267. Description: In vitro compound sensitivity assay (resazurin viability). The format is cell-based. Particulars: Trypanosoma brucei, 72 h incubation, n = 1. The protocol: (§1) T. b. brucei was cultured in complete HMI-9 medium,[20] which contains 10% fetal bovine serum (FBS) (Invitrogen, Carlsbad, CA), 10% Serum Plus medium (SAFC Biosciences, Lenexa, KS), and 100 units/mL penicillin and 0.1 mg/mL streptomycin. The trypanosomes were propagated in T-25 vented cap flasks (Corning Inc., Lowell, MA) at 37°C and 5% CO2 with humidity. To ensure log growth phase, trypanosomes were sub-cultured at appropriate dilutions (typically 1∶100) every 2–3 days in fresh HMI-9 medium. T. b. rhodesiense parasites were grown in MEM medium with Earle's salts supplemented with 15% horse serum. For T. b. gambiense, the MEM medium was supplemented with 5% heat-inactivated fetal calf serum (FCS) and 15% human serum.[21] L929 mouse fibroblast cells (ATCC CCL1, American Type Culture Collection, Rockville, MD) were used to determine parasite versus mammalian cell selectivity. Cells were cultured in Dulbecco's Modified Eagle Medium (DMEM), supplemented with 10% FBS, L-glutamine and 100 units/mL penicillin and 0.1 mg/mL streptomycin. MDCKII-hMDR1 cells were generously provided by P. Borst at the Netherlands Kancer Institute. Cells were cultured in DMEM with Glutamax, 10% (v/v) FBS, and 100 units/mL penicillin and 0.1 mg/mL streptomycin. Cell monolayers were fed with cell culture media 24 h after seeding and used for permeability studies 3 days later.
(§2) Compounds to be tested were serially diluted in DMSO and added to 96-well plates to give final concentrations ranging from 5 to 0.01 µg/mL. T. b. brucei parasites in the log phase of growth were diluted in HMI-9 media and added to each well for a final concentration of 1×10^4 parasites per well. For the sensitivity assays using T. b. rhodesiense and T. b. gambiense, pararasites were cultured in MEM supplemented with Baltz components (8), diluted in the aforementioned culture media, and added to each well at a density of 1×10^3 cells/well. The final concentration of DMSO was 0.5% and the total volume was 100 µL/well. After a 72 h incubation, resazurin (Sigma-Aldrich, St. Louis, MO) was added to each well [20 µL of 25 mg/100 mL stock in phosphate buffered saline (PBS)] and incubated for an additional 4–6 h.[22] To assess cell viability, fluorescence was quantified using an EnVision Multilabel Plate Reader (Perkin Elmer, Waltham, MA) at an excitation wavelength of 530 nm and emission of 590 nm. Triplicate data points were averaged to generate sigmoidal dose-response curves and determine IC50 values using XLfit curve fitting software from IDBS (Guilford, UK). The IC50 is defined as the amount of compound required to decrease parasite or cell viability by 50% compared to those grown in the absence of the test compound. […]
(In general: Resazurin is reduced to fluorescent resorufin, in cell work by metabolically active cells.)

Data set [2] has as its system T. b. gambiense DAL 1402. The description is as above. The format is cell-based. Particulars: Trypanosoma brucei, 72 h incubation, n = 1. The protocol:
as §1, §2

The test system of data set [3] is T. b. gambiense Drani. The data set is described as above. The format is cell-based. The note with it: Trypanosoma brucei, 72 h incubation, n = 1. The protocol: as §1, §2
The test system of data set [4] is T. b. gambiense 40R. The data set is described as above. The format is cell-based. The note with it: Trypanosoma brucei, 72 h. The protocol: as §1, §2
The nature of data set [5]: Pharmacokinetics in cynomolgus monkeys. The format is in vivo, cynomolgus monkey. The protocol: The blood distribution, CNS disposition and pharmacokinetics of SCYX-7158 were evaluated in infected or non-infected rodents following intravenous or oral administration of compounds. Pharmacokinetics and bioavailability of SCYX-7158 were also evaluated in non-infected beagle dogs and cynomolgus monkeys. In-life phases of non-infected rodent studies were performed at Vivisource (Waltham, MA); studies in non-naïve cynomolgus monkeys were performed by SNBL USA (Everett, WA). Male CD-1 mice (∼25 g), male Sprague-Dawley rats (∼225 g), or male cynomolgus monkeys (∼3–5 kg) were administered test article by either bolus intravenous injection (IV) or oral gavage. Animals in the IV groups received a single 2 mg/kg IV dose. Animals received oral doses of test articles as either single or twice daily doses ranging from 8 mg/kg to 50 mg/kg. All doses were administered as clear colorless solutions in either 50% (v/v) PEG 400: 20% (v/v) ethanol: 30% (v/v) carboxymethylcellulose (0.5% w/v in sterile water for injection) or 2% (v/v) ethanol: 5% (w/v) dextrose in sterile water for injection. […] For pharmacokinetic analysis, blood samples were collected from mice via cardiac puncture under terminal anaesthesia. Serial blood samples were collected from rats via a vascular access port located in the lateral saphenous vein. Mice and rats were euthanized in a CO2 chamber before collection of terminal blood samples or brain tissue. Blood samples were collected into polypropylene tubes containing K2EDTA anticoagulant and stored on ice until centrifuged for the preparation of plasma. Plasma was stored at −70°C. Whole brains were collected following decapitation, blotted dry, placed into polypropylene containers and then immediately frozen at approximately −70°C. CSF was collected from rats via cisterna magna puncture, placed in sterile polypropylene tubes, and stored at approximately −70°C. […] Treated samples were gently mixed at room temperature for 10 min, and then centrifuged at approximately 3000×g for 15 min at 15°C. The supernatants were transferred to 96-well plates or HPLC vials for analysis by LC-MS/MS. Pharmacokinetic parameters were calculated from composite mean plasma or tissue data using non-compartmental (oral and intravenous routes) and bi-exponential (intravenous route) analyses in Microsoft Excel.

By IC50 is commonly meant the concentration that inhibits the measured activity by half. Low readings indicate inhibition by little substance, high ones a need for much substance. One may read the AUC(0-inf) as the area under the concentration-time curve extrapolated to infinity. For orientation: Cmax means the maximum level reached in the sampled fluid or tissue. The term bioavailability denotes dose-corrected exposure relative to a reference, in per cent. Usually clearance stands for a measure of how efficiently the substance is removed, as volume per time. Lower therefore signals inefficient removal. Regarding `CC1(C)OB(O)c2cc(NC(=O)c3ccc(F)cc3C(F)(F)F)ccc21` [SCYX-7158], the IC50 in data set [1] stood at 0.092 µg/mL (≈ 0.251 µM); in data set [2], 0.065 µg/mL (≈ 0.177 µM); in data set [3], 0.129 µg/mL (≈ 0.351 µM); in data set [4], 0.363 µg/mL (≈ 0.989 µM). The “time of Cmax” value in data set [5] (10 mg/kg NG, plasma) is on record as 9.5 h. Further, the Kp in data set [5] (male, cynomolgus monkey, CSF/plasma, at each time point, read-out: CSF concentration as % of the plasma concentration) is approximately 0.05. In addition, the AUC(0-inf) in data set [5] (male, cynomolgus monkey, oral, 10 mg/kg SCYX-7158 NG, plasma) was 460000 ng·h/mL; in data set [5] (male, cynomolgus monkey, 2 mg/kg IV, plasma) it was 94400 ng·h/mL. The compound further registered a Cmax in data set [5] (male, cynomolgus monkey, oral, 10 mg/kg SCYX-7158 nasogastric (NG), plasma) of 11000 ng/mL. The bioavailability in data set [5] (male, cynomolgus monkey, plasma, po, 10 mg/kg NG, read-out: absolute oral bioavailability) worked out at 89%. Also, the CL/F in data set [5] (male, cynomolgus monkey, plasma, po, 10 mg/kg NG, read-out: oral clearance (Cl/F) (converted)) was 0.417 mL/min/kg. Moreover, in data set [5] (male, cynomolgus monkey, plasma, 2 mg/kg IV), the clearance was 0.367 mL/min/kg. For the same compound, the Vd in data set [5] (male, cynomolgus monkey, plasma, 2 mg/kg IV, read-out: Vdss) stood at 0.656 L/kg. For the same compound, in data set [5] (male, cynomolgus monkey, 2 mg/kg IV, plasma, read-out: AUC0–24 h), the AUC(0-t) came to 78800 ng·h/mL.

The values above are taken from PMC3125149, “SCYX-7158, an Orally-Active Benzoxaborole for the Treatment of Stage 2 Human African Trypanosomiasis” (PLoS Neglected Tropical Diseases, 2011).
